# Results: patent US20250032385A1, “FUNCTIONAL COMPOSITION FOR ALOPECIA COMPRISING CENTIPEDA MINIMA-DERIVED EXTRACT” (priority 2021, published 2025)
# Experiments:
# [1] = tested on: mouse macrophage RAW 264.7 cells; format: cell-based; conditions: for NO production as the concentration increased: 100 ng/ml LPS, 1.25, 2.5, 5 and 10 μg/ml; for NO production as the concentration increased / Concentration at which the production of NO was the lowest: 24 hours; for Concentration at which the production of NO was the lowest: tested 1.25-10 μg/ml; for Effect relative to the same amount Brevilin-A (potency value of inflammation inhibition rate): from NO production potency formulas, FIG. 12
# Experimental: The amount of NO produced by the cultured RAW 264.7 cells and present in the culture medium was measured using a NO detection kit (cat. No. 21021, Intron) based on the Griess reaction. 100 μl of the culture medium estimated to contain NO was dispensed into 96-well plates, and then 50 μl of N1 buffer (sulfanilamide) was added thereto and reacted at room temperature for 10 minutes. Next, 50 μl of N2 buffer (naphthylethylenediamine) was added thereto and reacted at room temperature for 10 minutes, and then the absorbance was measured at 540 nm. The amount of NO produced was determined using a standard calibration curve obtained using a nitrite standard. In addition, a positive control group (CTL) was treated with only LPS and fresh medium not containing any of the components, and a negative control group was treated with only 100 ng/ml LPS. The measurement results are presented as the average value of three repeated experiments.
# [2] = tested on: mouse macrophage RAW 264.7 cells; conditions: 24 hours; for Cell viability as the concentration increased (cytotoxicity): 1.25, 2.5, 5 and 10 μg/ml; for Concentration at which the cell viability was the highest: tested 1.25-10 μg/ml; for Cell viability compared with positive control group (CTL): 10 μg/mL
# Experimental: In addition, for comparison, an NO production inhibition measurement experiment and a cell viability measurement experiment were also conducted on the synthetic anti-inflammatory agent dexamethasone.
# The experiments were conducted using mouse macrophage RAW 264.7 cells as an inflammatory model. RAW 264.7 cells were cultured in a 100 mm cell culture dish with DMEM containing 10% fetal bovine serum and 1% penicillin in a 5% CO2 incubator. Cells that reached confluence were detached using a scraper and subcultured.
# Specifically, for the experiment on cell viability, RAW 264.7 cells were dispensed on a 60-mm plate at a density of 2×10^6 cells/dish, and attached to the plate for 24 hours. Then, the cells were treated with fresh media containing each component at concentrations of 1.25, 2.5, 5 and 10 μg/ml and cultured for 24 hours. The number of viable cells was counted by measuring the dehydrogenase present in the mitochondria within the cultured cells. EZ-CYTOX reagent (EZ-1000, Daeilab) was used, and based on the absorbance measured at 450 nm, the cell viability for each concentration was calculated according to the following equation: Cell viability=(absorbance of CMX-treated group/absorbance of untreated group)×100.
SMILES,NO production as the concentration increased [1],Concentration at which the production of NO was the lowest ([1]; 100 ng/ml LPS),Effect relative to the same amount Brevilin-A (potency value of inflammation inhibition rate) [1],Cell viability as the concentration increased (cytotoxicity) [2],Concentration at which the cell viability was the highest [2],Cell viability compared with positive control group (CTL) [2],"NO production compared with positive control group (CTL) ([1]; 5 μg/mL, 100 ng/ml LPS)"
C/C=C(/C)C(=O)O[C@H]1[C@@H]2[C@H](C)C(=O)O[C@@H]2C[C@@H](C)[C@@H]2C=CC(=O)[C@]21C [Brevilin A],decreased,5 µg/mL,1.0,no significant change,5000 ng/mL,,
C/C=C(\C)C(=O)O[C@H]1[C@@H]2[C@H](C)C(=O)O[C@@H]2C[C@@H](C)[C@@H]2C=CC(=O)[C@]21C [Microhelenin C],decreased,10 µg/mL,0.8,no significant change,,somewhat higher than that in the positive control group (CTL),
C=C(C)C(=O)O[C@H]1[C@@H]2[C@H](C)C(=O)O[C@@H]2C[C@@H](C)[C@@H]2C=CC(=O)[C@]21C [Arnicolide D],decreased,,1.5,no significant change,5000 ng/mL,,lower than that in the positive control group (CTL)
CC(C)C(=O)O[C@H]1[C@@H]2[C@H](C)C(=O)O[C@@H]2C[C@@H](C)[C@@H]2C=CC(=O)[C@]21C [Arnicolide C],decreased,10 µg/mL,0.7,no significant change,,difference in cell viability from the positive control group (CTL) was significantly small,
